The source of these data is patent publication US6861431B2, “Compounds capable of modulating the activity of multidrug transporters and therapeutic use of the same” (The Board of Trustees of the University of Illinois, priority 2001, dated 2005).

Series [1] concerns mouse ConA cells. The experiment in a line: DMBA sensitivity of mouse cells. It is filed as cell-based. The method, then: (§1) The effect of the identified compounds on DMBA sensitivity of mouse cells also was tested. It has been reported that ABC type transporters (e.g., P-gp) are involved in the efflux of polycyclic aromatic hydrocarbon carcinogens from cells. The effect of the identified compounds on sensitivity of mouse cells to 7,12-dimethylbenz[a]anthracene (DMBA) was determined. […].

The nature of series [2]: DMBA sensitivity of mouse cells. To be noted: mouse fibroblasts, three days, without Compound 102; read-out: IC50 of DMBA cytotoxicity. It is filed as cell-based. The method, then:
as §1

Series [3] concerns P-gp. The experiment in a line: Rho123 accumulation in ConA cells. It is filed as cell-based, mouse. The arrangement: effect on Rho123 efflux/accumulation: dose or concentration left out as unconfirmed. The note with it: for effect on Rho123 efflux/accumulation: two hours with Rho123, flow cytometry (FIG. 8). The method, then:
Screening of a chemical library. Murine fibroblastoid cell line (ConA) was selected as the readout system for screening a chemical library for P-gp activators. […] Rho123, a classic fluorescent P-gp substrate that is detected easily using multichannel fluorimeter in living cells, was used as an efflux indicator. […] Primary screening was performed on ConA cells for compounds that interfere with Adr-induced activation of p53-responsive reporter LacZ gene as previously described (11). To identify P-gp modulators, all “hits” isolated after primary screening were tested for their ability to modulate cellular accumulation of Rho123. Con A cells grown in 96-well plates were incubated 4 hours with 0.5 μM Rho123 in combination with individual library compounds (2 μg/ml (2-5 μM)), and cell fluorescence was analyzed using fluorescent microscopy.
(§2) Drug accumulation and efflux assay. […] For drug efflux assay, cells after drug incubation were washed thoroughly with PBS, incubated in a drug-free media with or without compounds from the chemical library, and harvested at different time points for flow cytometric analysis (18).
(§3) ConA cells were incubated two hours with Rho123 ([…]) or daunorubicin (500 ng/ml) in the presence of the identified compounds, and accumulation of the drugs was quantitated by flow cytometry.
On the technique in general: In flow cytometry, cells or beads pass a laser one at a time.

The subject of series [4] is P-gp. As to the kind of experiment: Daunorubicin accumulation in ConA cells. It is filed as cell-based, mouse. To be noted: ConA cells, two hours with daunorubicin (500 ng/ml), flow cytometry (FIG. 8). The protocol: Drug accumulation and efflux assay. […] For drug efflux assay, cells after drug incubation were washed thoroughly with PBS, incubated in a drug-free media with or without compounds from the chemical library, and harvested at different time points for flow cytometric analysis (18). […]
as §3

Series [5] relates to KB-8-5-11 cells. As to the kind of experiment: Drug sensitivity assay, KB-8-5-11 cells (P-gp-positive). Type of series: cell-based, human. The note with it: for IC50: Homo sapiens, human KB-8-5-11 cells, read-out: 50% growth inhibitory dose of the drug. The protocol:
(§4) Drug sensitivity assays. To estimate drug-mediated growth inhibition, 10^3 cells were plated per well of 96-well plates, and incubated with a range of concentrations of drugs added 24 hours after plating. After 5 to […] of drug treatment, plates were fixed and stained using 2% methylene blue solution in 50% methanol. After elution by 1% SDS solution, optical density was determined on a Multiscan Ascent reader (Lybsystems, Helsinki, Finland) at 650 nm.
(§5) To determine transporter specificity of the identified compounds, the compounds were tested on cells differing in the type of multidrug transporter expressed: KB-8-5-11 cells, (expressing P-gp), SW1753-A120 cells (expressing MRP1), and KB-3-1 (expressing neither of the above transporters and highly sensitive to drugs that are P-gp or MRP1 substrates).

Series [6] concerns P-gp. The method, then: as §4, §2
Series [7] relates to ConA cells. The experiment in a line: Drug sensitivity (growth inhibition) assay, ConA cells. It is filed as cell-based, mouse. To be noted: for IC50: Mus musculus, murine ConA cells, read-out: 50% growth inhibitory dose of the drug. The protocol: Drug sensitivity assays. To estimate drug-mediated growth inhibition, 10^3 cells were plated per well of 96-well plates, and incubated with a range of concentrations of drugs added 24 hours after plating. […] After elution by 1% SDS solution, optical density was determined on a Multiscan Ascent reader (Lybsystems, Helsinki, Finland) at 650 nm.

Series [8] concerns the target T1, P-gp (Homo sapiens, UniProt P08183).
Series [9] addresses T1, P-gp. This is another data set of the same source.
For series [10], the target named is T1, P-gp. The experiment in a line: Drug resistance of mouse ConA cells expressing human P-gp (MDR1 cDNA transfection). It is filed as cell-based. More on the design: expressed in transfected cells; host or cells: mouse fibroblasts, line ConA, transfected with MDR1 cDNA in LNL6 (Mo-MuLV LTR promoter). From the text: These cells are known to overexpress P-gp as result of MDR1 gene amplification. To completely eliminate possibility that some other ABC type transporter expressed in KB-8-5-11 cells might be responsible for this phenomenon, mouse fibroblasts, line ConA, permanently expressing human P-gp as a result of transfection with MDR1 cDNA-expressing plasmid LNL6 were used.

Series [11] addresses T1, P-gp. The experiment in a line: P-gp-mediated efflux of taxol by KB-8-5-11 cells. Type of series: cell-based. The arrangement: overexpressing P-gp as a result of MDR1 gene amplification (20); endogenous in cells; host or cells: KB-8-5-11 (multidrug resistant derivative of KB-3-1). From the text: (§6) Drug accumulation and efflux assay.
Consistent with the drug sensitivity data, Compound 102 suppressed P-gp-mediated efflux of taxol by KB-8-5-11 cells, acting as a P-gp inhibitor for this drug (FIGS. 4 and 5). These observations indicate that Compound 102 should be defined as a modulator rather than a general activator of P-gp that acts by changing relative substrate specificity of the transporter.

Series [12] concerns P-gp. As to the kind of experiment: Rho123 efflux from preloaded ConA cells. Type of series: cell-based, mouse. More on the design: increase of efflux of Rho123 from cells preloaded with the dye: dose or concentration left out as unconfirmed. The protocol: as §2
The dynamics of reduction of Rho123 fluorescence was monitored by flow cytometry.

In series [13] the target is T1, P-gp. The experiment in a line: Rho123 accumulation in KB-8-5-11 cells. Type of series: cell-based. More on the design: overexpressing P-gp as a result of MDR1 gene amplification (20); endogenous in cells; host or cells: KB-8-5-11 (multidrug resistant derivative of KB-3-1). To be noted: KB-8-5-11 cells overexpressing P-gp.
Source text: as §6
To test the effect of Compound 102 specifically on P-gp, a pair of human cell lines used as conventional models for studying P-gp, i.e., P-gp-negative KB-3-1 and its multidrug resistant derivative KB-8-5-11, overexpressing P-gp as a result of MDR1 gene amplification (20), were used.

The test system of series [14] is KB-3-1 cells. The experiment in a line: Drug sensitivity assay, KB-3-1 cells (P-gp-negative). It is filed as cell-based, human. The method, then:
as §4, §5

For series [15], the system named is SW1753-A120 cells. As to the kind of experiment: Drug sensitivity assay, SW1753-A120 cells (expressing MRP1). Type of series: cell-based. The note with it: P-gp-negative; for cell sensitivity to vinblastine: MRP1-positive cells SW1753-A120 (FIG. 13). The method, then:
as §5

≈ marks a conversion by molar mass, not a printed value. Entries after “also recorded” stand apart in the source; their conditions may differ. Read-outs that look alike come from different tables or passages of the source.

T1 sequence (P08183 whole entry): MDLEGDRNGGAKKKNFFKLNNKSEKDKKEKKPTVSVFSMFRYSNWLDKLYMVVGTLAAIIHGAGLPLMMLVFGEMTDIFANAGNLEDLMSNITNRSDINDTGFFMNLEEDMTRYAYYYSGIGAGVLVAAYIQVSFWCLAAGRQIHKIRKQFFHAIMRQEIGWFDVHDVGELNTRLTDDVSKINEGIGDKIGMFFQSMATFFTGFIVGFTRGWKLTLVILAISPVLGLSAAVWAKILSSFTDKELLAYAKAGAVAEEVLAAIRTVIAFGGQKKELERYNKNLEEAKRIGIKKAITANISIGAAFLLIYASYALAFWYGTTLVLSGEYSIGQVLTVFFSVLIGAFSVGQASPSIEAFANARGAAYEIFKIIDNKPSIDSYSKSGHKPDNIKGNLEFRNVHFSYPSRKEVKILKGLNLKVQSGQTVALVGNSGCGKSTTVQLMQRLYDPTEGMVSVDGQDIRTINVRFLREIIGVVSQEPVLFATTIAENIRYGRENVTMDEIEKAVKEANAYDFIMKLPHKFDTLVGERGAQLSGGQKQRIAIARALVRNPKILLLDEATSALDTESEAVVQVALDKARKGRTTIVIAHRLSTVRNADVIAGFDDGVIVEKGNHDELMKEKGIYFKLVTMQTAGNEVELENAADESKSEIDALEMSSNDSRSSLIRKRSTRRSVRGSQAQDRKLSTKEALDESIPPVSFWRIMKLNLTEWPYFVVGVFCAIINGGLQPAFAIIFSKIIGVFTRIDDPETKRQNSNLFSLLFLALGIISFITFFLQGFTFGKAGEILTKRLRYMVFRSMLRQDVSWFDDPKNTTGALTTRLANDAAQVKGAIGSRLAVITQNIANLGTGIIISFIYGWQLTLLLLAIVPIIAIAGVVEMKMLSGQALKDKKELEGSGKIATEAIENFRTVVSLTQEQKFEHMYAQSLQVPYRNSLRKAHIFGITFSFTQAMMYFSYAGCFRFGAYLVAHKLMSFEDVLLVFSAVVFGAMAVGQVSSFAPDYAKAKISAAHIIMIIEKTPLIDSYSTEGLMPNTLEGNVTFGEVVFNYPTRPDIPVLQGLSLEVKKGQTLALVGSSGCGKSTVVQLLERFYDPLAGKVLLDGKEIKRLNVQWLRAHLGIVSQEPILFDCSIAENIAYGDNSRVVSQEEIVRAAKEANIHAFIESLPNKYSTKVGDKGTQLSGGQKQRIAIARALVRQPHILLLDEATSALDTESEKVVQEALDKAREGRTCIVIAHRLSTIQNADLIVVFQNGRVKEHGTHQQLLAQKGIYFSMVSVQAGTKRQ

On to `Cc1c2ccccc2c(C)c2c1ccc1ccccc12` [DMBA, 7,12-dimethylbenz[a]anthracene], for which the IC50 in series [1] (Mus musculus, Fibroblast, 72 h, read-out: IC50 of DMBA cytotoxicity) turned out to be 5 µM. Also, in series [2], the IC50 at 3 days worked out at 0.31 µM.

As for `Cc1ccc(-c2nnc(-c3ccccc3Cl)o2)s1` [Compound 16, 2-(2-Chloro-phenyl)-5-(5-methyl-thiophen-2-yl)-[1,3,4]oxadiazole], in series [3], the “effect on Rho123 efflux/accumulation” value is listed as “relatively effective”. Besides, the “effect on daunorubicin accumulation” value in series [4] is on record as “weak influence”. Moreover, in [1], the “protection of cells from cytotoxicity of DMBA” value (shortened to “protection of cells”) is “strong protective effect”.

For `COc1cccc2c1C(=O)c1c(O)c3c(c(O)c1C2=O)C[C@@](O)(C(=O)CO)C[C@@H]3O[C@H]1C[C@H](N)[C@H](O)[C@H](C)O1` [Doxorubicin, adriamycin], the IC50 was 1.2 µg/mL (≈ 2.21 µM) in [5] (with Compound 102), 0.2 µg/mL (≈ 0.368 µM) in [5] (without Compound 102), 0.3 µg/mL (≈ 0.552 µM) in [7] (with Compound 102) and 0.05 µg/mL (≈ 0.092 µM) in [7] (without Compound 102). Besides, the “cytotoxicity of the drug in the presence of Compound 102” value in [6] is listed as “less toxic”. Also, the “Change in sensitivity (x-fold)” value in [7] (ConA cells, Compound 102 (10 μM), fold resistance) was determined as 6 x-fold. For the same molecule, the “Effect of Compound 102 on drug sensitivity of cell lines: ConA (Balb 3T3)” value in series [7] (P-gp-positive ConA cells, label = drug) was “R”.

Turning to `CC(=O)[C@H]1CC[C@H]2[C@@H]3CCC4=CC(=O)CC[C@]4(C)[C@H]3CC[C@]12C` [progesterone], the “effect on P-gp-mediated Rho123 efflux” value in series [8] is “weak effect”. For the same molecule, the “changes in cell cross resistance to P-gp substrates tested” value in series [9] is “did not cause detectable changes”.

In the case of `Cc1ccc(-c2cn3c4c(sc3n2)CCCC4)cc1` [Compound 102, 2-p-Tolyl-5,6,7,8-tetrahydro-benzo[d]imidazo[2,1-b]thiazole], the resistance to doxorubicin entry in series [10] (mouse ConA fibroblasts expressing human P-gp (FIG. 10)) is “increased resistance”. The resistance to vinblastine entry in [10] (mouse ConA fibroblasts expressing human P-gp (data not shown)) is “decreased resistance”. Besides, the “P-gp-mediated efflux of taxol” value in series [11] is “suppressed”. For the same molecule, the “increase of efflux of Rho123 from cells preloaded with the dye” value in series [12] (ConA cells loaded with Rho123, Rho123-free medium, with vs without Compound 102 (FIGS. 2 and 3)) was “about 20 times”. Moreover, the Rho123 accumulation entry in series [13] was “strongly decreased”. In addition, the “effect on drug sensitivity” value in series [14] (P-gp-negative cell line KB-3-1) was “No effect”. Also, the “protection of cells” value in [1] is given as “strongly protects”. Further, the “increase of natural level of resistance to DMBA” value in series [1] (mouse fibroblasts, 10 μM Compound 102) is on record as “greater than 15 fold”. Besides, the “cell sensitivity to vinblastine” value in series [15] is reported as “no effect”. Besides, in series [15] (MRP1-positive cells SW1753-A120 (FIG. 16)), the “cell sensitivity to doxorubicin” value is listed as “no effect”. The “cell sensitivity to colcemide” value in series [7] (ConA cells grown 72 hours with drug with or without Compound 102 (FIG. 6)) is given as “no effect”.

For the molecule `Cc1ccccc1Cn1c(=O)sc2ccccc21` [Compound 103], the “cell sensitivity to doxorubicin” value was “increase cell sensitivity” in [5] (P-gp-positive cells KB-8-5-11 (FIG. 15)); “can increase cell resistance” in series [14] (P-gp- and MRP1-negative cells KB-3-1 (FIG. 17)). Also, the “cell sensitivity to vinblastine” value in series [14] (P-gp- and MRP1-negative cells KB-3-1 (FIG. 14)) is given as “weak sensitizing effect”; in series [15] it was “increases; also recorded: weak sensitizing effect”.

With `Nc1nc(SCCc2ccccc2)nc2sc3c(c12)CCCC3` [Compound 13, 2-Phenethylsulfanyl-5,6,7,8-tetrahydro-benzo[4,5]thieno[2,3-d]pyrimidin-4-ylamine], the “effect on Rho123 efflux/accumulation” value in series [3] is on record as “strong effect”. Also, in series [4], the “effect on daunorubicin accumulation” value was “two to four times less pronounced effect”. Also, in series [1], the “protection of cells” value is reported as “strong protective effect”.

`COC(=O)[C@H]1[C@H]2C[C@@H]3c4[nH]c5cc(OC)ccc5c4CCN3C[C@H]2C[C@@H](OC(=O)c2cc(OC)c(OC)c(OC)c2)[C@@H]1OC` [reserpine]: in [12] (ConA cells preloaded with Rho123, Compound 102 present), the “effect of P-gp inhibitor on Compound 102-stimulated Rho123 efflux” value is on record as “completely reverted”. In [3] (identified compounds present), the “effect of P-gp inhibitor on compound-mediated reduction of Adr and Rho123 accumulation” value is given as “completely reverted”.

As to `C=CCn1c2ccccc2n2cc(-c3ccccc3)nc12` [Compound 11, 8-Allyl-2-phenyl-8H-1,3a,8-triaza-cyclopenta[a]indene], the “effect on Rho123 efflux/accumulation” value in series [3] is reported as “strong effect”. For the same molecule, the “effect on daunorubicin accumulation” value in series [4] was “two to four times less pronounced effect”. Further, the “protection of cells” value in series [1] was “strong protective effect”.
